In patent US10328077B2 (CELGENE CORPORATION, priority 2016, dated 2019):
Like-named read-outs stand apart in the source and are kept apart here.

Legend:
human LSD-1 = human LSD-1 (Homo sapiens (Human), UniProt O60341); experiment: In vitro enzyme inhibition assay LSD-1 (TR-FRET); type: biochemical; conditions: TR-FRET, H3K4me1-biotin labeled peptide
Text: This assay determines the ability of a test compound to inhibit LSD-1 demethylase activity.
The enzymatic assay of LSD-1 activity is based on Time Resolved-Fluorescence Resonance Energy Transfer (TR-FRET) detection.

[1] = tested on: Kasumi-1 AML cancer cell line; experiment: Kasumi-1 AML cell line proliferation assay (Cell-MTS); type: cell-based; conditions: Homo sapiens, 168 hours
Text: Colorimetric cellular assay to assess the ability of LSD-1 small molecule inhibitors to effect the proliferation of the established AML cancer cell line Kasumi-1
This Cell-MTS assay is a 7-day plate based colorimetric assay which quantifies the amount of newly generated NADH in the presence and absence of test compound. These NADH levels are used as a proxy for the quantification of cancer cell proliferation.
The established cancer cell line Kasumi-1 with a verified p53 mutation were purchased from American Type Culture Collection (ATCC) and routinely passaged according to ATCC published protocols. For routine assay these cells were seeded at a density of 20,000 cells per 96-well. […] At the end of this compound incubation period, 80 μl of media is removed and 20 μL of CellTiter 96® AQueous Non-Radioactive Cell Proliferation Assay solution (Promega) is added. The cells are incubated until the OD490 is >0.6. IC50 values are calculated using the IDBS XLfit software package and include background subtracted OD490 values and normalization to DMSO controls.

[2] = tested on: CD11b expression in THP-1 (AML) cells; experiment: LSD-1 CD11b cellular assay (flow cytometry); conditions: Homo sapiens, THP-1, 96 h, read-out: THP-1 IC50
Protocol: To analyze LSD-1 inhibitor efficacy in cells, a CD11b flow cytometry assay was performed. […] LSD-1 test compounds were serially diluted in DMSO. The dilutions were added to each well accordingly to a final concentration of 0.2% DMSO. The cells were incubated at 37 degrees Celsius in 5% CO2 for 4 days. 250 μL of each well was transferred to a well in a 96 well round bottom plate. The plate was centrifuged at 1200 rpm at 4 degrees Celsius in a Beckman Coulter Alegra 6KR centrifuge for 5 minutes. The media was removed leaving the cells at the bottom of the wells. The cells were washed in 100 μL cold HBSS (Hank's Balanced Salt Solution) plus 2% BSA (Bovine Serum Albumin) solution and centrifuged at 1200 rpm at 4 degrees Celsius for 5 minutes. The wash was removed. […] The cells were centrifuged and washed two times in 100 μl HBSS plus 2% BSA. After the final spin the cells were resuspended in 100 μL HBSS plus 2% BSA containing 1 μg/mL DAPI (4′,6-diamidino-2-phenylindole). The cells were then analyzed by flow cytometry in a BD FACSAria machine. Cells were analyzed for CD11b expression. The percent of CD11b expressing cells for each inhibitor concentration was used to determine an IC50 curve for each compound analyzed.

[3] = tested on: LXFS 573 SCLC patient-derived xenograft
[4] = Etoposide 24 mg/kg/day SC days 1-3 + vehicle

| Structure (SMILES) | IC50 (human LSD-1) [nM] | IC50 [1] [nM] | IC50 [2] [nM] | other results |
| --- | --- | --- | --- | --- |
| Cn1c(N2CCC(N)CC2)nc(-c2ccc(C#N)cc2)c(-c2cnn(CC(F)(F)F)c2)c1=O [Example 36, 4-{2-(4-amino-piperidin-1-yl)-1-methyl-6-oxo-5-[1-(2,2,2-trifluoro-ethyl)-1H-pyrazol-4-yl]-1,6-dihydro-pyrimidin-4-yl}-benzonitrile] | < 100 | < 100 | < 100 |  |
| COc1ccc(-c2c(-c3ccc(C#N)c(F)c3)nc(N3CCC(N)CC3)n(C)c2=O)cc1 [Example 6, 4-[2-(4-amino-piperidin-1-yl)-5-(4-methoxy-phenyl)-1-methyl-6-oxo-1,6-dihydro-pyrimidin-4-yl]-2-fluoro-benzonitrile] | < 100 | < 100 | < 100 |  |
| CN(C)C1CCN(c2nc(-c3ccc(C#N)c(F)c3)c(-c3ccc4nn(C)cc4c3)c(=O)n2C)CC1 [Example 71, 4-[2-(4-dimethylamino-piperidin-1-yl)-1-methyl-5-(2-methyl-2H-indazol-5-yl)-6-oxo-1,6-dihydro-pyrimidin-4-yl]-2-fluoro-benzonitrile] | < 100 | < 100 | < 100 |  |
| COc1ccc(-c2c(-c3ccc(C#N)cc3)nc(N3CCC(N)CC3)n(C)c2=O)cn1 [Example 3, 4-[2-(4-amino-piperidin-1-yl)-5-(6-methoxy-pyridin-3-yl)-1-methyl-6-oxo-1,6-dihydro-pyrimidin-4-yl]-benzonitrile] | < 100 | < 100 | < 100 |  |
| Cn1c(N2CCC(N)CC2)nc(-c2ccc(C#N)c(F)c2)c(-c2ccc3c(cnn3C)c2)c1=O [Example 35, 4-[2-(4-amino-piperidin-1-yl)-1-methyl-5-(1-methyl-1H-indazol-5-yl)-6-oxo-1,6-dihydro-pyrimidin-4-yl]-2-fluoro-benzonitrile] |  | < 100 | < 100 |  |
| Cn1c(N2CCC(N)CC2)nc(-c2ccc(C#N)c(F)c2)c(-c2ccc3[nH]ncc3c2)c1=O [Example 88, 4-[2-(4-aminopiperidin-1-yl)-5-(1H-indazol-5-yl)-1-methyl-6-oxopyrimidin-4-yl]-2-fluorobenzonitrile] | < 100 | < 100 | < 100 |  |
| Cn1c(N2CCC(N)CC2)nc(-c2ccc(C#N)c(F)c2)c(-c2cnn(CC(F)(F)F)c2)c1=O [Example 34, 4-{2-(4-amino-piperidin-1-yl)-1-methyl-6-oxo-5-[1-(2,2,2-trifluoro-ethyl)-1H-pyrazol-4-yl]-1,6-dihydro-pyrimidin-4-yl}-2-fluoro-benzonitrile] | < 100 | < 100 | < 100 |  |
| Cn1cc2cc(-c3c(-c4ccc(C#N)c(F)c4)nc(N4CCCNCC4)n(C)c3=O)ccc2n1 [Example 66, 4-[2-[1,4]diazepan-1-yl-1-methyl-5-(2-methyl-2H-indazol-5-yl)-6-oxo-1,6-dihydro-pyrimidin-4-yl]-2-fluoro-benzonitrile] | < 100 | < 100 | < 100 |  |
| COc1ccc(-c2c(-c3ccc(C#N)c(F)c3)nc(N3CCC(N)CC3)n(C)c2=O)cn1 [Example 8, 4-[2-(4-amino-piperidin-1-yl)-5-(6-methoxy-pyridin-3-yl)-1-methyl-6-oxo-1,6-dihydro-pyrimidin-4-yl]-2-fluoro-benzonitrile] | < 100 | < 100 | < 100 |  |
| CN(C)C1CCN(c2nc(-c3ccc(C#N)c(F)c3)c(-c3ccc4cn(C)nc4c3)c(=O)n2C)CC1 [Example 80, 4-[2-(4-dimethylamino-piperidin-1-yl)-1-methyl-5-(2-methyl-2H-indazol-6-yl)-6-oxo-1,6-dihydro-pyrimidin-4-yl]-2-fluoro-benzonitrile] | < 100 |  | < 100 |  |
| COc1cc([C@@H]2c3cc4c(cc3[C@@H](O[C@@H]3O[C@@H]5CO[C@@H](C)O[C@H]5[C@H](O)[C@H]3O)[C@H]3COC(=O)[C@H]23)OCO4)cc(OC)c1O [Etoposide, etoposide, reference compound] |  |  |  | % TGD [3, 4]: 50%; T − C [3, 4]: 21 days; median TTE [3, 4]: 63 days; median TTE ([3]; etoposide monotherapy 24 mg/kg SC): 63 days; % TGD (NCI-H1417 SCLC xenograft; 24 mg/kg Etoposide SC QD x 3): 92%; T − C (NCI-H1417 SCLC xenograft; 24 mg/kg Etoposide SC QD x 3): 24 days; median TTE (NCI-H1417 SCLC xenograft; 24 mg/kg Etoposide SC QD x 3): 50 days; median TTE (NCI-H1417 SCLC xenograft; etoposide monotherapy 24 mg/kg SC QD×3): 50 days |
| Cn1c(N2CCC(N)CC2)nc(-c2ccc(C#N)c(F)c2)c(-c2ccc(N)cc2)c1=O [Example 89, 4-[5-(4-aminophenyl)-2-(4-aminopiperidin-1-yl)-1-methyl-6-oxopyrimidin-4-yl]-2-fluorobenzonitrile] | < 100 |  | < 100 |  |
| Cc1ccc(-c2c(-c3ccc(C#N)cc3)nc(N3CCC(N)CC3)n(C)c2=O)cn1 [Example 4, 4-[2-(4-amino-piperidin-1-yl)-1-methyl-5-(6-methyl-pyridin-3-yl)-6-oxo-1,6-dihydro-pyrimidin-4-yl]-benzonitrile] | < 100 | 100 to 1000 | < 100 |  |
| Cc1ccc(-c2c(-c3ccc(C#N)c(F)c3)nc(N3CCC(N)CC3)n(C)c2=O)cn1 [Example 9] | < 100 | < 100 | < 100 |  |
| Cn1c(N2CCC(N)CC2)nc(-c2ccc(C#N)cc2)c(-c2ccc(OCCO)cc2)c1=O [Example 97, 4-[2-(4-aminopiperidin-1-yl)-5-[4-(2-hydroxyethoxy)phenyl]-1-methyl-6-oxopyrimidin-4-yl]benzonitrile] | < 100 |  | < 100 |  |
| COc1ccc(-c2c(-c3ccc(C#N)c(F)c3)nc(N3CCC(N)CC3)[nH]c2=O)cc1 [Example 122, 4-[2-(4-aminopiperidin-1-yl)-5-(4-methoxyphenyl)-6-oxo-1H-pyrimidin-4-yl]-2-fluorobenzonitrile] | < 100 |  | < 100 |  |
| CNCC1CN(c2nc(-c3ccc(C#N)c(F)c3)c(-c3ccc(OC)cc3)c(=O)n2C)C1 [Example 70, 2-fluoro-4-[5-(4-methoxy-phenyl)-1-methyl-2-(3-methylaminomethyl-azetidin-1-yl)-6-oxo-1,6-dihydro-pyrimidin-4-yl]-benzonitrile] | < 100 |  | < 100 |  |
| Cn1c(N2CCC(N)CC2)nc(-c2ccc(C#N)c(F)c2)c(-c2ccc3[nH]ccc3c2)c1=O [Example 73, 4-[2-(4-amino-piperidin-1-yl)-5-(1H-indol-5-yl)-1-methyl-6-oxo-1,6-dihydro-pyrimidin-4-yl]-2-fluoro-benzonitrile] | < 100 |  | < 100 |  |
| Cn1cc2cc(-c3c(-c4ccc(C#N)c(F)c4)nc(N4CCC(N)CC4)n(C)c3=O)ccc2n1 [Example 37, 4-[2-(4-aminopiperidyl)-1-methyl-5-(2-methyl(2H-indazol-5-yl))-6-oxohydropyrimidin-4-yl]-2-fluorobenzenecarbonitrile] | < 100 |  | < 100 |  |
| CNC1CCN(c2nc(-c3ccc(C#N)c(F)c3)c(-c3ccc4nn(C)cc4c3)c(=O)n2C)CC1 [Example 65, 2-fluoro-4-[1-methyl-2-(4-methylamino-piperidin-1-yl)-5-(2-methyl-2H-indazol-5-yl)-6-oxo-1,6-dihydro-pyrimidin-4-yl]-benzonitrile] | < 100 | < 100 | < 100 |  |
| Cn1cc2cc(-c3c(-c4ccc(C#N)cc4)nc(N4CCC(N)CC4)n(C)c3=O)ccc2n1 [Example 24, 4-[2-(4-aminopiperidyl)-1-methyl-5-(2-methyl(2H-indazol-5-yl))-6-oxohydropyrimidin-4-yl]benzenecarbonitrile] |  | < 100 | < 100 |  |
| Cn1c(N2CCC(N)CC2)nc(-c2ccc(C#N)c(F)c2)c(C#CC2CCCC2)c1=O [Example 14, 4-[2-(4-amino-piperidin-1-yl)-5-cyclopentylethynyl-1-methyl-6-oxo-1,6-dihydro-pyrimidin-4-yl]-2-fluoro-benzonitrile] | < 100 |  | < 100 |  |
| COc1ccc(-c2c(-c3ccc(C#N)c(F)c3)nc(N3CCC(N)CC3)n(CC(N)=O)c2=O)cc1 [Example 16, 2-[2-(4-amino-piperidin-1-yl)-4-(4-cyano-3-fluoro-phenyl)-5-(4-methoxy-phenyl)-6-oxo-6H-pyrimidin-1-yl]-acetamide] | < 100 |  | < 100 |  |
